Values of other authors as cited in patent US10543230B2, “Redox signaling gel formulation” (RDG Holdings, Inc., priority 2013, dated 2020).

Conditions: pH around 7.0, room temperature

Structure (SMILES) | half-life
[O]O [superoxide free radicals (O2*-), superoxide] | 10's of milliseconds
O=[O+][O-] [dissolved ozone (O3), ozone] | about 20 min
